We go through 18 molecules from patent US20230365563A1, “QUINAZOLINE COMPOUND AND APPLICATION THEREOF” (SHANGHAI PHARMACEUTICALS HOLDING CO., LTD., priority 2020, published 2023).

Counter-ions that a name gives are not always drawn. Some results are limits rather than exact numbers.

The target in one assay is T1, KRAS-G12D and SOS1 (Homo sapiens, UniProt P01116, G12D).
T1 construct: purchased
In words: Inhibition of KRAS-G12D/SOS1 binding (Cisbio binding kit, 665/615 ratio), Effect Embodiment A. To be noted: read-out: GTP-KRAS-G12D:SOS1 IC50. In outline: (§1)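 Test compounds were serially diluted 3-fold from the storage solution over 11 points and dispensed in duplicate wells at 1% final DMSO.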

For the next assay, the target named is T2, KRAS_G12D and cRAF (Homo sapiens, UniProt P01116, G12D).
T2 construct: purchased
T2 sequence (P01116 1-188 isoform P01116-2 G12D): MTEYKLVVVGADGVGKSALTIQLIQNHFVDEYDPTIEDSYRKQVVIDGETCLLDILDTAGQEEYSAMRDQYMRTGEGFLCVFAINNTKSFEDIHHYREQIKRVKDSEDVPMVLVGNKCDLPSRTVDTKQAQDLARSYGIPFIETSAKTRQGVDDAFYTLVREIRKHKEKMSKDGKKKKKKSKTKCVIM
Briefly: Inhibition of KRAS_G12D/cRAF binding (Cisbio binding kit, 665/615 ratio), Effect Embodiment B. As to conditions: read-out: GTP-KRAS-G12D:CRAF IC50. In outline: as §1

In a further assay the target is T3, KRAS_WT and SOS1 (Homo sapiens, UniProt P01116).
T3 construct: purchased
T3 sequence (P01116 1-188 isoform P01116-2): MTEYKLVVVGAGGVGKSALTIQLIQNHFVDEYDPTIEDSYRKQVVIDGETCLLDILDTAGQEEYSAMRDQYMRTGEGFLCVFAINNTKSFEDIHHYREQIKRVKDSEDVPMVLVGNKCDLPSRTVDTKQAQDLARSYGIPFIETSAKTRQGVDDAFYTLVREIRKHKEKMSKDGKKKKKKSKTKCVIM
Briefly: Inhibition of KRAS_WT/SOS1 binding (Cisbio binding kit, 665/615 ratio), Effect Embodiment C. To be noted: read-out: GTP-KRAS-WT:SOS1 IC50. In outline: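 Compounds tested as 3-fold, 11-point dilutions in duplicate at 1% DMSO final against the KRAS_WT/SOS1 binding system. IC50 derived by nonlinear regression fit.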

T1 sequence (P01116 1-188 isoform P01116-2 G12D): as the sequence (P01116 1-188 isoform P01116-2 G12D) above

For the molecule `CN(C)CC(C)(C)COc1nc(N2CC3CCC(C2)N3)c2cc(Cl)c(-c3cc(O)cc4ccccc34)c(F)c2n1` (single isomer, unassigned) [Compound 118, 4-((S or R)-4-((1R,5S)-3,8-diazabicyclo[3.2.1]octan-3-yl)-6-chloro-2-(3-(dimethylamino)-2,2-dimethylpropoxy)-8-fluoroquinazolin-7-yl)naphthalen-2-ol dihydrochloride], the IC50 – broadly, the point on the concentration scale where inhibition reaches its midpoint – at KRAS-G12D and SOS1 worked out at 19.5 nM; at KRAS_G12D and cRAF, 53.7 nM; on KRAS_WT and SOS1 it was 2410 nM.

With `CN(C)CCCOc1nc(N2C[C@H]3CC[C@@H](C2)N3)c2cc(Cl)c(-c3cc(O)cc4ccccc34)c(F)c2n1` (single isomer, unassigned) [Compound 40a, (S or R)-4-(4-((1R,5S)-3,8-diazabicyclo[3.2.1]octan-3-yl)-6-chloro-2-(3-(dimethylamino)propoxy)-8-fluoroquinazolin-7-yl)naphthalen-2-ol], the IC50 at KRAS-G12D and SOS1 was found to be 15.2 nM; on KRAS_G12D and cRAF, 104 nM; at KRAS_WT and SOS1, 1040 nM.

For the molecule `Oc1cc(-c2c(Cl)cc3c(N4CC5CCC(C4)N5)nc(OCCCN4CC5CCC(C4)O5)nc3c2F)c2ccccc2c1` (single isomer, unassigned) [Compound 188, 4-((7R or S)-2-(3-(8-oxa-3-azabicyclo[3.2.1]octan-3-yl)propoxy)-4-((1R,5S)-3,8-diazabicyclo[3.2.1]octan-3-yl)-6-chloro-8-fluoroquinazolin-7-yl)naphthalen-2-ol formate], the IC50 at KRAS-G12D and SOS1 is 35.6 nM; at KRAS_G12D and cRAF, 133 nM; at KRAS_WT and SOS1, 1020 nM.

`CN1CCCC[C@H]1COc1nc(N2CC3CCC(C2)N3)c2cc(Cl)c(-c3cc(O)cc4ccccc34)c(F)c2n1` (single isomer, unassigned) [Compound 56a, 4-((S or R)-4-((1R,5S)-3,8-diazabicyclo[3.2.1]octan-3-yl)-6-chloro-8-fluoro-2-((S)-1-methylpiperidin-2-yl)methoxy)quinazolin-7-yl)naphthalen-2-ol dihydrochloride]: the IC50 amounted to 64.1 nM on KRAS-G12D and SOS1; 461 nM at KRAS_G12D and cRAF; 14000 nM at KRAS_WT and SOS1.

`CN1CCC[C@H]1COc1nc(N2CC3(C)CCC(C)(C2)N3)c2cc(Cl)c(-c3cc(O)cc4ccccc34)c(F)c2n1` (single isomer, unassigned) [Compound 194a, 4-((R or S)-6-chloro-4-((1R,5S)-1,5-dimethyl-3,8-diazabicyclo[3.2.1]octan-3-yl)-8-fluoro-2-(((S)-1-methylpyrrolidin-2-yl)methoxy)quinazolin-7-yl)naphthalen-2-ol diformate]: the IC50 stood at 27.9 nM on KRAS-G12D and SOS1; 155 nM on KRAS_G12D and cRAF; 205 nM on KRAS_WT and SOS1.

`Oc1cc(-c2c(Cl)cc3c(N4CC5CCC(C4)N5)nc(OCC4CCC5COCCN5C4)nc3c2F)c2ccccc2c1` (single isomer, unassigned) [Compound 264b, 4-((R or S)-4-((1R,5S)-3,8-diazacyclo[3.2.1]octan-3-yl)-6-chloro-8-fluoro-2-((7R or 7S, 9aR or 9aS)-octahydropyridine[2,1-c][1,4]oxazin-7-yl)methoxy)quinazolin-7-yl)naphthalen-2-ol formate]: the IC50 on KRAS-G12D and SOS1 came to 19.3 nM; on KRAS_G12D and cRAF it was 101 nM; on KRAS_WT and SOS1 it was 196 nM.

For the molecule `CN1C[C@@H]2C[C@@H]2[C@H]1COc1nc(N2CC3CCC(C2)N3)c2cc(Cl)c(-c3cc(O)cc4ccccc34)c(F)c2n1` (single isomer, unassigned) [Compound 183, 4-((R or S)-4-((1R,5S)-3,8-diazabicyclo[3.2.1]octan-3-yl)-6-chloro-8-fluoro-2-((1S,2S,5R)-3-methyl-3-azabicyclo[3.1.0]hexan-2-yl)methoxy)quinazolin-7-yl)naphthalen-2-ol diformate], the IC50 at KRAS-G12D and SOS1 worked out at 29.2 nM; on KRAS_G12D and cRAF, 88.9 nM; at KRAS_WT and SOS1 it was 1510 nM.

As to `Oc1cc(-c2cc(F)c3c(N4CC5CCC(C4)N5)nc(OCCCN4C5CCC4COC5)nc3c2F)c2ccccc2c1` [Compound 253, 4-(2-(3-(3-Oxa-8-azabicyclo[3.2.1]octan-8-yl)propoxy)-4-((1R,5S)-3,8-diazabicyclo[3.2.1]octan-3-yl)-5,8-difluoroquinazolin-7-yl)naphthalen-2-ol formate], the IC50 came out at 63 nM on KRAS-G12D and SOS1; 489 nM on KRAS_G12D and cRAF; 1980 nM on KRAS_WT and SOS1.

`CO[C@@H](COc1nc(N2CC3CCC(C2)N3)c2cc(Cl)c(-c3cc(O)cc4ccccc34)c(F)c2n1)CN1C2CCC1COC2` (single isomer, unassigned) [Compound 182, (4R or S)-4-(2-((2R)-3-(3-oxa-8-azabicyclo[3.2.1]octan-8-yl)-2-methoxypropoxy)-4-((1R,5S)-3,8-diazabicyclo[3.2.1]octan-3-yl)-6-chloro-8-fluoroquinazolin-7-yl)naphthalen-2-ol diformate]: the 50% inhibitory concentration (IC50) amounted to 53.3 nM on KRAS-G12D and SOS1; 219 nM at KRAS_G12D and cRAF; 3400 nM on KRAS_WT and SOS1.

As to `Oc1cc(-c2c(Cl)cc3c(N4CC5CCC(C4)N5)nc(OCCCN4CCC5(CC4)COC5)nc3c2F)c2ccccc2c1` (single isomer, unassigned) [Compound 262, 4-((S or R)-2-(3-(2-oxa-7-azaspiro[3.5]nonan-7-yl)propoxy)-4-((1R,5S)-3,8-diazacyclo[3.2.1]octan-3-yl)-6-chloro-8-fluoroquinazolin-7-yl)naphthalen-2-ol diformate], the IC50 on KRAS-G12D and SOS1 amounted to 24.3 nM; on KRAS_G12D and cRAF, 141 nM; on KRAS_WT and SOS1, 1660 nM.

In the case of `Oc1cc(-c2c(Cl)cc3c(N4CC5CCC(C4)N5)nc(OCC(F)CN4CCCC4)nc3c2F)c2ccccc2c1` (single isomer, unassigned) [Compound 109a, 4-((S or R)-4-((1R,5S)-3,8-diazabicyclo[3.2.1]octan-3-yl)-6-chloro-8-fluoro-2-((S or R)-2-fluoro-3-(pyrrolidin-1-yl)propoxy)quinazolin-7-yl)naphthalen-2-ol hydrochloride], the IC50 on KRAS-G12D and SOS1 was 27 nM; at KRAS_G12D and cRAF, 89.3 nM; at KRAS_WT and SOS1 it was 2570 nM.

As to `CN(C)CCCCCOc1nc(N2CC3CCC(C2)N3)c2cc(Cl)c(-c3cc(O)cc4ccccc34)c(F)c2n1` (single isomer, unassigned) [Compound 98, 4-((S or R)-4-((1R,5S)-3,8-diazabicyclo[3.2.1]octan-3-yl)-6-chloro-2-((5-(dimethylamino)pentyl)oxy)-8-fluoroquinazolin-7-yl)naphthalen-2-ol carboxylate], the IC50 on KRAS-G12D and SOS1 was determined as 95.3 nM; on KRAS_G12D and cRAF, 477 nM; at KRAS_WT and SOS1 it was 7700 nM.

In the case of `Cc1cccc2cc(O)cc(-c3c(Cl)cc4c(N5CC6CCC(C5)N6)nc(N5CC(N(C)C)C5)nc4c3F)c12` (single isomer, unassigned) [Compound 47a, 4-((S or R)-4-((1R,5S)-3,8-diazabicyclo[3.2.1]octan-3-yl)-6-chloro-2-(3-(dimethylamino)azetidin-1-yl)-8-fluoroquinazolin-7-yl)-5-methylnaphthalen-2-ol], the IC50 at KRAS-G12D and SOS1 is 208 nM; at KRAS_G12D and cRAF, 824 nM; on KRAS_WT and SOS1, 5700 nM.

`CN(C)CC1(COc2nc(N3CC4CCC(C3)N4)c3cc(Cl)c(-c4cc(O)cc5ccccc45)c(F)c3n2)CC1` (single isomer, unassigned) [Compound 186, 4-((R or S)-4-((1R,5S)-3,8-diazabicyclo[3.2.1]octan-3-yl)-6-chloro-2-((1-((dimethylamino)methyl)cyclopropyl)methoxy)-8-fluoroquinazolin-7-yl)naphthalen-2-ol diformate]: the IC50 on KRAS-G12D and SOS1 turned out to be 16.9 nM; on KRAS_G12D and cRAF it was 18.1 nM; on KRAS_WT and SOS1 it was 233 nM.

Consider `CN(C)[C@H]1C[C@H](Oc2nc(N3CC4CCC(C3)N4)c3cc(Cl)c(-c4cc(O)cc5ccccc45)c(F)c3n2)C1` (single isomer, unassigned) [Compound 69b, 4-((S or R)-4-((1R,5S)-3,8-diazabicyclo[3.2.1]octan-3-yl)-6-chloro-2-((1R,3S)-3-(dimethylamino)cyclobutoxy)-8-fluoroquinazolin-7-yl)naphthalen-2-ol dihydrochloride], for which the IC50 on KRAS-G12D and SOS1 is 157 nM; at KRAS_G12D and cRAF it was 1960 nM; on KRAS_WT and SOS1, over 100000 nM.

In the case of `Oc1cc(-c2c(Cl)cc3c(N4CC5CCC(C4)N5)nc(OC[C@@]45CCCN4C[C@H](F)C5)nc3c2F)c2ccccc2c1` (single isomer, unassigned) [Compound 176, 4-((R or S)-4-((1R,5S)-3,8-diazabicyclo[3.2.1]octan-3-yl)-6-chloro-8-fluoro-2-((2R,7aS)-2-fluorotetrahydro-1H-pyrrolin-7a(5H)-yl)methoxy)quinazolin-7-yl)naphthalenol formate], the IC50 on KRAS-G12D and SOS1 worked out at 13.6 nM; on KRAS_G12D and cRAF, 6.98 nM; on KRAS_WT and SOS1 it was 28 nM.

In the case of `Oc1cc(-c2c(Cl)cc3c(N4CC5CCC(C4)N5)nc(OCC(F)(F)CN4CCCC4)nc3c2F)c2ccccc2c1` (single isomer, unassigned) [Compound 107, 4-((S or R)-4-((1R,5S)-3,8-diazabicyclo[3.2.1]octan-3-yl)-6-chloro-2-(2,2-difluoro-3-(pyrrolidin-1-yl)propoxy)-8-fluoroquinazolin-7-yl)naphthalen-2-ol dihydrochloride], the IC50 is 47 nM at KRAS-G12D and SOS1; 160 nM on KRAS_G12D and cRAF; 3490 nM at KRAS_WT and SOS1.

On to `CCc1c(F)ccc2cccc(-c3c(F)cc4c(N5CC6CCC(C5)N6)nc(OC[C@@]56CCCN5C[C@H](F)C6)nc4c3F)c12` (single isomer, unassigned) [Compound 280a, 4-((1R,5S)-3,8-diazacyclo[3.2.1]octan-3-yl)-7-((S or R)-8-ethyl-7-fluoronaphthalen-1-yl)-6,8-difluoro-2-((2R,7aS)-2-fluorotetrahydro-1H-pyrrolidin-7a(5H)-yl)methoxy)quinazoline dihydrochloride], for which the IC50 on KRAS-G12D and SOS1 was found to be 17.1 nM; at KRAS_G12D and cRAF, 14.1 nM; at KRAS_WT and SOS1 it was 234 nM.
